Entries after “also recorded” stand apart in the source; their conditions may differ. Where no end group is shown, it is not given here. The star is where a group is joined. Acm = CC(=O)NC*
Key:
[1] = test system: Cells; settings: 0.2 mg/mL, 5 hr, 37° C.
[2] = test system: INS cells; settings: 0.2 mg/mL, 37° C.
[3] = test system: INS-1 cells; assay: Cellular cytotoxicity by MTS after exposure to polymers and reagents; format: cell-based; settings: 1 mg/mL polymer or 0.05 mg/mL dye, 37° C., up to 48 hours post-exposure
Procedure: Cellular cytotoxicity following exposure to the polymers and reagents: INS-1 cells were incubated with the polymers and/or reagents (1 mg/mL polymer or 0.05 mg/mL dye) at 37° C., and cellular viability was determined by MTS (FIG. 5).

[4] = Acute oral toxicity testing (LD50); settings: C57BI/6, mouse, in vivo
Procedure: Acute oral toxicity testing of intact nanospheres and individual components was carried out to determine the LD50 (median lethal dose) with C57BI/6 (Table 2).

[5] = test system: uMUC-1-positive (LS174T) tumors; assay: In vivo MR and NIRF imaging of tumor-bearing animals; set-up: species or system mice
Procedure: (§1) (B) White light (left), near-infrared fluorescent (NIRF) (middle) images, and a color-coded map (right) of mice bearing bilateral underglycosylated mucin-1 antigen uMUC-1-negative (U87) and uMUC-1-positive (LS174T) tumors. NIRF imaging was performed immediately after the MRI session. […] (D) Dual channel fluorescence microscopy of the frozen LS 174T tumor section. Green channel fluorescence from the FITC-labeled EPPT peptide (left) colocalized with Cy5.5 fluorescence derived from Cy5.5-labeled cross-linked iron oxides (middle). […] Magnification bar=10 μm.
(§2) In vivo ^1H-MR imaging was performed on animals bearing bilateral uMUC-1-positive and uMUC-1-negative tumors before and 24 hours after probe injection. […] The same animals were subjected to optical imaging immediately after the MR-imaging session. […] Fluorescence microscopy of excised tumors and muscle tissue gave results consistent with NIRF images. From biodistribution studies with ^125I-CLIO-EPPT, on average uMUC-1-positive tumors accumulated 3.4 times more of the probe than uMUC-1-negative tumors.

[6] = test system: uMUC-1-negative (U87) tumors; assay: as above; set-up: species or system mice; settings: control tumors
Procedure: as §1, §2

[7] = test system: control uMUC-1-negative cell line U87; assay: In vitro specificity of CLIO-EPPT (flow cytometry, fluorescence microscopy); format: cell-based, human
Excerpt: (§3) FIG. 7 depicts a crosslinked iron oxide (CLIO)-EPPT multi-modal imaging probe. (A) The core protein of the MUC-1 tumor antigen. The immunodominant region of the tandem repeat is recognized by the EPPT1 peptide derived from an ASM2 monoclonal antibody (45). (B) Synthesis (left) and scheme of the probe (right). […] Left, overlay of the bright field and FITC channel; middle, overlay of the bright field and Cy5.5 channel; right, overlay of the FITC and Cy5.5 channels. […] Magnification bars=10 μm.
(§4) In vitro specificity of CLIO-EPPT for adenocarcinomas was further characterized by flow cytometric analysis of probe binding to selected adenocarcinoma and control cell lines (FIG. 7E). […] Fluorescence microscopy experiments, in which adenocarcinoma and control cells were incubated with the probe, confirmed the fluorescence-activated cell sorting data.

[8] = test system: adenocarcinoma cell lines (BT-20, CAPAN-2, ChaGo-K-1, HT-29, LS174T); assay: as above; format: cell-based, human
Excerpt: as §3, §4

[9] = Dynamic light scattering of CLIO-EPPT probes; format: physicochemical
Excerpt: To extend these studies using perfluoro labeled polymer, the same FITC-labeled EPPT1 peptide was used. […] The study with the CLIO-EPPT nanoparticles established test procedures which will be used.

[10] = test system: human uMUC-1-positive tumor cell lines; assay: Cell binding assay with 125I-labeled CLIO-EPPT; format: cell-based
Excerpt: as §3
(§5) Cell binding assays (FIG. 7D) were carried out with a variety of human uMUC-1-positive tumor cell lines: ZR-75-1 (breast), BT-20 (breast), HT29 (colon), CAPAN-2 (pancreas), LS174T (colon), and ChaGo-K-1 (lung) as well as human control uMUC-1-negative tumor and normal cell lines.

[11] = test system: human control uMUC-1-negative tumor and normal cell lines; assay: Cell binding assay with 125I-labeled CLIO-EPPT; format: cell-based; settings: 1 hour incubation
Excerpt: as §3, §5

[12] = test system: uMUC-1-positive tumors versus uMUC-1-negative tumors; set-up: species or system mice; settings: mouse, in vivo
Procedure: as §2

[13] = target: underglycosylated mucin-1 antigen (uMUC-1) (Homo sapiens, UniProt P15941); settings: read-out: binding constant Kd; cited from earlier work
Chain of underglycosylated mucin-1 antigen (uMUC-1) (P15941 24-1255): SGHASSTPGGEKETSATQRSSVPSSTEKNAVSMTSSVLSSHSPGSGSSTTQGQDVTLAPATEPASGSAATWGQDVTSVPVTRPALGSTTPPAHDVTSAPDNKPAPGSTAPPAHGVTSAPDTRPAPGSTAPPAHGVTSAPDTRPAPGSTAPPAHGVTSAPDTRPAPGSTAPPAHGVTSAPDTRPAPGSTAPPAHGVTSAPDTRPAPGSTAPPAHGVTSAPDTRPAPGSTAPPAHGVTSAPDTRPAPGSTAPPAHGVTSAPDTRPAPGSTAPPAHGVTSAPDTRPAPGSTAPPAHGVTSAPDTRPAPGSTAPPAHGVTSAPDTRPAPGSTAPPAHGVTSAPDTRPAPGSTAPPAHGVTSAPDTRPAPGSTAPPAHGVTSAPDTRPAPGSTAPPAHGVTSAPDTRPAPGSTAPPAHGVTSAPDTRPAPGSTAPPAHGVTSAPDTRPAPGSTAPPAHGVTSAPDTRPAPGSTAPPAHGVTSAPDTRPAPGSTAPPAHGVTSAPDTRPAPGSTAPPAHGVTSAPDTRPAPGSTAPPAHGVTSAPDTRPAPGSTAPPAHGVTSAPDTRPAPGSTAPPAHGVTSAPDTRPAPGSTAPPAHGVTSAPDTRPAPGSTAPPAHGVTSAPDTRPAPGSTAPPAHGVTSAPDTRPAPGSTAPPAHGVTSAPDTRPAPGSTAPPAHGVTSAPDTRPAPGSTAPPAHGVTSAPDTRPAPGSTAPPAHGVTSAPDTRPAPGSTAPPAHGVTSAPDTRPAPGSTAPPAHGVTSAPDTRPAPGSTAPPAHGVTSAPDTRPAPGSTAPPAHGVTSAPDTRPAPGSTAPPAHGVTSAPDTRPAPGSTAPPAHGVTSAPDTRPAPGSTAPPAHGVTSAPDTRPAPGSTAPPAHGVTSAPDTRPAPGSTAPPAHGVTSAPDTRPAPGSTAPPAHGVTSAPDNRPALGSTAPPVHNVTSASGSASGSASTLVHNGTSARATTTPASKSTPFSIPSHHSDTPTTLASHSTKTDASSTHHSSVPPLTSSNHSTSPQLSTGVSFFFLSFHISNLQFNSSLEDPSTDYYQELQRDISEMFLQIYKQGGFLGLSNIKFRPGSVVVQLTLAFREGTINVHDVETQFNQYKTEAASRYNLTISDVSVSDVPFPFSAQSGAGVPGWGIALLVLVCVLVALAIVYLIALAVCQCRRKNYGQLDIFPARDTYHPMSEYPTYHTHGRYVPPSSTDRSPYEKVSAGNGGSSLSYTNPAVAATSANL

**Q.** For `COc1cccc2c1C(=O)c1c(O)c3c(c(O)c1C2=O)C[C@@](O)(C(=O)CO)C[C@@H]3O[C@H]1C[C@H](N)[C@H](O)[C@H](C)O1` [doxorubicin], which “intracellular localization (confocal microscopy)” value [1] is on record?
**A.** largely confined to the nucleus

**Q.** What about the “rate of cell death (MTS)” value [2] of the same compound?
**A.** comparable rate of cell death

**Q.** For `CCN(CC)c1ccc2c(-c3ccccc3C(=O)O)c3ccc(=[N+](CC)CC)cc-3oc2c1` [Rhodamine, Rhodamine B], which “cytotoxicity (cellular viability by MTS)” value [3] is on record?
**A.** cytotoxic effects were readily observed

**Q.** Which LD50 [4] does the source give for `N[C@@H](CC(=O)O)C(=O)O` [Aspartic Acid] here?
**A.** 20000 mg/kg

**Q.** Which results are given for “CLIO-EPPT: cross-linked iron oxide nanoparticle carrying Cy5.5 dye and FITC-labeled EPPT1 peptides on the dextran coat; radioiodinated for binding and biodistribution (YC(Acm)AREPPTRTFAYWG-{K(FITC)-Lys}; not fully specified; printed as Y-C(ACM)-A-R-E-P-P-T-R-T-F-A-Y-W-G-K(FITC)K; also: conjugated to CLIO iron oxide nanoparticle with Cy5.5 dye, radioiodinated)”?
**A.** decrease in signal intensity of T2-weighted MR images ([5]; LS174T tumors, 24 h after probe injection): 52%; dual channel fluorescence microscopy of excised tumors ([5]; uMUC-1-positive tumors): colocalization of FITC and Cy5.5 signals; NIRF signal ([5]; uMUC-1-positive tumors, immediately after MR-imaging session): high intensity NIRF signal; also recorded: strong NIRF signal; NIRF signal [6]: no significant signal; dual channel fluorescence microscopy of excised tumors [6]: no signal; decrease in signal intensity of T2-weighted MR images ([6]; 24 hours after probe injection): 13-18%; staining by fluorescence microscopy ([7]; U87, FITC or Cy5.5 channels): no fluorescence was observed; probe binding by flow cytometry ([7]; control cell line U87): no cell binding; also recorded: no shift; probe binding by flow cytometry [8]: bound the probe; also recorded: a shift in fluorescence in the FLI and FL4 channels; staining by fluorescence microscopy ([8]; FITC and Cy5.5 channels): stained strongly; also recorded: colocalization of the FITC and Cy5.5 signal; hydrodynamic diameter [9]: about 36 nm; CLIO-EPPT nanoparticles bound per cell ([10]; 125I-labeled, 1 hour incubation): 10^7-10^8 nanoparticles per cell; accumulation versus uMUC-1-negative tumor or normal cells ([10]; cell binding assay, P<0.05): significantly more; nanoparticle uptake versus uMUC-1-positive tumor cell lines [11]: much lower nanoparticle uptake; probe accumulation in uMUC-1-positive tumors relative to uMUC-1-negative tumors [12]: 3.4 times

**Q.** With “synthetic peptide YCAREPPTRTFAYWG (SEQ ID NO: 1) derived from CDR3 Vh region of monoclonal antibody ASM2 (not fully specified (C-terminus); listed as Homo sapiens) [EPPT1]” as the compound, how does the Kd [13] read?
**A.** 20 µM

Reference: patent publication US8349991B2, “Amphiphilic polymers and methods of use thereof” (Massachusetts Institute of Technology, priority 2005, dated 2013)
